Consider 9 compounds from PubChem BioAssay (NCI).

Several values for one entry are separate records, joined by “and”; a condition that tells them apart may be missing. Equal values may be shown once.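 Growth conditions: 96-well plates. Treatment: test compound, 48 hours, 5 concentrations. Analysis: linear interpolation between bracketing concentrations; unreached endpoints set to highest concentration. The concentration for 50% growth inhibition is given as GI50. TGI marks complete inhibition of growth.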

Test systems include CCRF-CEM leukemia; NCI-H522 lung; HOP-62 NSCLC; IGROV1 ovarian; SR leukemia; SK-MEL-5 melanoma; MOLT-4 leukemia; OVCAR-4 ovarian; SK-MEL-28 melanoma; M14 melanoma.
Assay in all cases: inhibition of tumour cell growth, NCI panel, 48 h

For the compound `COc1cc(OC)cc(N2CCN(C(=O)Nc3nc4cc(F)ccc4nc3OC)CC2)c1`, the GI50 in the assay on CCRF-CEM leukemia was 0.0899 µM and 0.0338 µM and 0.0345 µM; in the assay with NCI-H522 lung, 0.012 µM and 0.0225 µM; in the assay on HOP-62 NSCLC, 0.0346 µM and 0.0573 µM and 0.051 µM; in the assay with IGROV1 ovarian, 0.0441 µM and 0.0988 µM and 0.062 µM; with SR leukemia, < 0.018 µM and 0.0415 µM and 0.0268 µM; with SK-MEL-5 melanoma it was < 0.023 µM and 0.0297 µM and 0.023 µM. The GI50 in the assay with MOLT-4 leukemia is 0.049 µM and 0.0457 µM and 0.044 µM; in the assay on SK-MEL-28 melanoma, 10.9 µM and 6.92 µM. Also, the TGI is more than 100 µM in the assay on CCRF-CEM leukemia; 0.534 µM and 0.581 µM and 0.146 µM in the assay on NCI-H522 lung; 58.7 µM and 25.2 µM in the assay with HOP-62 NSCLC; 32.3 µM and 39.5 µM with IGROV1 ovarian; 20.2 µM and 24.8 µM with SR leukemia; 0.294 µM and 0.399 µM and 0.16 µM in the assay on SK-MEL-5 melanoma. The TGI with MOLT-4 leukemia was 31.1 µM and 30.7 µM; with OVCAR-4 ovarian, 84.8 µM and > 100 µM; in the assay on SK-MEL-28 melanoma it was 74.9 µM and 37 µM.
As for `O=C(CN=Cc1cccs1)CSC(c1ccccc1)c1ccccc1`, the GI50 is 20.8 µM in the assay with CCRF-CEM leukemia; 34 µM in the assay on HOP-62 NSCLC; 22 µM in the assay on M14 melanoma; 17.1 µM in the assay with SR leukemia; 15.6 µM in the assay on SK-MEL-5 melanoma; 18.5 µM with MOLT-4 leukemia. In addition, the GI50 with OVCAR-4 ovarian is 26.5 µM; with SK-MEL-28 melanoma it was 27.7 µM. Further, the TGI was more than 100 µM with CCRF-CEM leukemia; more than 100 µM in the assay with HOP-62 NSCLC; 55.5 µM with M14 melanoma; 54.1 µM in the assay on SR leukemia; 29 µM in the assay with SK-MEL-5 melanoma; 69.1 µM in the assay on MOLT-4 leukemia. Besides, the TGI with OVCAR-4 ovarian and in the assay on SK-MEL-28 melanoma was more than 100 µM throughout.
As to `O=c1c2cc(F)ccc2sc2c(NCCCN3CCCC3)nc3ccccc3c12`, the GI50 in the assay on CCRF-CEM leukemia was 2.02 µM; in the assay on NCI-H522 lung, 1.97 µM; in the assay with IGROV1 ovarian it was 1.84 µM; in the assay on M14 melanoma it was 1.86 µM; with SR leukemia, 2.75 µM; in the assay on SK-MEL-5 melanoma, 1.69 µM. The GI50 with MOLT-4 leukemia was 1.97 µM; in the assay on OVCAR-4 ovarian, 2.01 µM; in the assay with SK-MEL-28 melanoma, 1.97 µM. For the same compound, the TGI in the assay with CCRF-CEM leukemia amounted to 4.51 µM; in the assay with NCI-H522 lung, 3.96 µM; with IGROV1 ovarian, 3.85 µM; in the assay on M14 melanoma it was 3.47 µM; with SR leukemia it was 6.51 µM; in the assay with SK-MEL-5 melanoma, 3.07 µM. The TGI in the assay with MOLT-4 leukemia was 4.22 µM; in the assay with OVCAR-4 ovarian, 4.61 µM; in the assay on SK-MEL-28 melanoma, 3.85 µM.
With `O=c1[nH]c2cc(O)ccc2n2cc3c(F)cccc3c12`, the GI50 in the assay on CCRF-CEM leukemia was 2.68 µM; in the assay on NCI-H522 lung it was 0.785 µM; in the assay with HOP-62 NSCLC, 0.847 µM; with IGROV1 ovarian it was 2.16 µM; in the assay with M14 melanoma, 1.38 µM; in the assay with SR leukemia, 0.509 µM. Moreover, the GI50 with SK-MEL-5 melanoma was 0.348 µM; in the assay with MOLT-4 leukemia it was 2.16 µM; in the assay with OVCAR-4 ovarian, more than 100 µM. Moreover, the TGI in the assay with CCRF-CEM leukemia is more than 100 µM; in the assay on NCI-H522 lung, more than 100 µM; with HOP-62 NSCLC, more than 100 µM; in the assay on IGROV1 ovarian it was more than 100 µM; in the assay with M14 melanoma, more than 100 µM; in the assay on SR leukemia, 28.9 µM. Further, the TGI in the assay on SK-MEL-5 melanoma, with MOLT-4 leukemia and in the assay on OVCAR-4 ovarian was more than 100 µM throughout.
`CCC1(N2C(=O)c3c(F)c(F)c(F)c(F)c3C2=O)C(=O)NC(=O)N(c2ccccc2)C1=O` (stereo not drawn): the GI50 is 1.31 µM in the assay with CCRF-CEM leukemia; 3.13 µM in the assay with NCI-H522 lung; 4.93 µM in the assay on HOP-62 NSCLC; 4.46 µM in the assay with M14 melanoma; 0.496 µM in the assay with SR leukemia; 2.64 µM in the assay with MOLT-4 leukemia. The GI50 in the assay with OVCAR-4 ovarian was 1.74 µM; in the assay on SK-MEL-28 melanoma it was 2.79 µM. In addition, the TGI in the assay on CCRF-CEM leukemia was found to be 3.8 µM; in the assay on NCI-H522 lung, 26.2 µM; with HOP-62 NSCLC, 20.8 µM; with M14 melanoma, 19.4 µM; with SR leukemia, 4.32 µM; with MOLT-4 leukemia it was 6.35 µM. For the same compound, the TGI came to 4.08 µM in the assay with OVCAR-4 ovarian and 10.6 µM with SK-MEL-28 melanoma.
Consider `CC(C)=C1CCC(CN2CCCC2)C1=O` (stereo not drawn), for which the TGI with CCRF-CEM leukemia was 39 µM; with HOP-62 NSCLC, more than 100 µM; in the assay with IGROV1 ovarian it was more than 100 µM; in the assay on M14 melanoma it was 34.1 µM; with SR leukemia, 35.9 µM; in the assay on SK-MEL-5 melanoma, more than 100 µM. For the same compound, the TGI in the assay with MOLT-4 leukemia was 44.3 µM; in the assay on OVCAR-4 ovarian it was 32.3 µM; in the assay with SK-MEL-28 melanoma it was 48.8 µM.
For `CCCCCCCCCCCCCCCC(=O)N[C@H]1CCc2cc(OC)c(OC)c(OC)c2-c2ccc(SC)c(=O)cc21`, the GI50 in the assay with CCRF-CEM leukemia was 2.68 µM; in the assay with HOP-62 NSCLC it was 2.13 µM; in the assay on M14 melanoma it was 0.386 µM; in the assay on SR leukemia, 0.597 µM; in the assay with SK-MEL-5 melanoma, 1.52 µM; in the assay on MOLT-4 leukemia it was 3.21 µM. Moreover, the GI50 in the assay on OVCAR-4 ovarian was 8.65 µM. Besides, the TGI in the assay with CCRF-CEM leukemia was 11.4 µM and 15.3 µM; in the assay on HOP-62 NSCLC it was 62.6 µM and 18.2 µM; in the assay on IGROV1 ovarian, 39 µM and 10.9 µM; with M14 melanoma, 2.86 µM and 1.89 µM; in the assay with SR leukemia it was 8.28 µM and 13.2 µM; in the assay with SK-MEL-5 melanoma it was 5.73 µM and 4.4 µM. The TGI was 19.6 µM and 13.1 µM with MOLT-4 leukemia; 80 µM and > 100 µM in the assay with OVCAR-4 ovarian; 24.3 µM and 17.9 µM in the assay on SK-MEL-28 melanoma.
Regarding `O=C1/C(=C/c2ccccc2)CN(C(=O)Oc2ccc([N+](=O)[O-])cc2)C/C1=C\c1ccccc1`, the GI50 in the assay with CCRF-CEM leukemia was 1.72 µM; in the assay on NCI-H522 lung, 2.15 µM; in the assay with M14 melanoma it was 1.71 µM; in the assay with SR leukemia, 0.261 µM; with SK-MEL-5 melanoma, 4.12 µM; in the assay on MOLT-4 leukemia, 1.21 µM. Further, the GI50 with OVCAR-4 ovarian is 1.77 µM. The TGI is 6.5 µM and 8.22 µM with CCRF-CEM leukemia; 8.54 µM and 5.13 µM in the assay on NCI-H522 lung; 6.74 µM and 3.51 µM in the assay with M14 melanoma; 5.54 µM and 0.775 µM in the assay with SR leukemia; 5.38 µM in the assay with SK-MEL-5 melanoma; 4.83 µM and 4.45 µM in the assay on MOLT-4 leukemia. Besides, the TGI in the assay with OVCAR-4 ovarian was 7.87 µM and 4.15 µM; with SK-MEL-28 melanoma it was 7.65 µM.
Regarding `OCCCCC#Cc1ccccc1C#Cc1cnccn1`, the GI50 was 26.9 µM in the assay on CCRF-CEM leukemia; 24.5 µM in the assay with NCI-H522 lung; 41 µM with HOP-62 NSCLC; 25.8 µM with IGROV1 ovarian; 28.1 µM in the assay with SR leukemia; 38.2 µM with SK-MEL-5 melanoma. Also, the values for the GI50 in the assay with MOLT-4 leukemia, in the assay with OVCAR-4 ovarian and with SK-MEL-28 melanoma were 29.8 µM, 28.5 µM and 43.4 µM, respectively. For the same compound, the TGI with CCRF-CEM leukemia is more than 100 µM; in the assay on NCI-H522 lung, 63.7 µM; in the assay with HOP-62 NSCLC it was more than 100 µM; in the assay with IGROV1 ovarian, 96 µM; with SR leukemia it was more than 100 µM; in the assay with SK-MEL-5 melanoma it was more than 100 µM. Further, the TGI with MOLT-4 leukemia, with OVCAR-4 ovarian and with SK-MEL-28 melanoma was more than 100 µM each time.
